{"source": "paper PMC6868923", "about": "(EXCLI Journal, 2019)", "key": {"[1]": {"tested_on": "HepG2.2.15 and Vero cells"}, "[2]": {"tested_on": "HepG2.2.15 cells"}, "[3]": {"tested_on": "Hepatitis B virus (HBV)", "experiment": "microbe, parasite or virus in culture", "assay_type": "cell-based", "conditions": "read-out: EC50 HBV"}, "[4]": {"experiment": "in vitro", "conditions": "human (HepG2.2.15); African green monkey (Vero)"}, "[5]": {"experiment": "in vitro", "conditions": "human"}, "[6]": {"tested_on": "poliovirus type 1 Sabin strain (PV-1)", "experiment": "microbe, parasite or virus in culture", "assay_type": "cell-based", "conditions": "for EC50 / inhibition at 0.0001 µM / inhibition at 0.001 µM / inhibition at 0.01 µM / inhibition at 0.1 µM / inhibition at 1 µM: Enterovirus C, Vero; for EC50: 24 h, read-out: EC50 PV-1; for inhibition at 0.0001 µM / inhibition at 0.001 µM / inhibition at 0.01 µM / inhibition at 0.1 µM / inhibition at 1 µM: N 3, read-out: Inhibition percent relative to control, Polio virus (Median)"}, "[7]": {"tested_on": "Herpes simplex type 1 F strain (HSV-1)", "experiment": "microbe, parasite or virus in culture", "assay_type": "cell-based, Herpes Simplex Virus type 1", "conditions": "for EC50 / inhibition at 10 µM / inhibition at 0.0001 µM / inhibition at 0.001 µM / inhibition at 0.01 µM / inhibition at 0.1 µM / inhibition at 1 µM: Human alphaherpesvirus 1, Vero; for EC50: 48 h, read-out: EC50 HSV-1; for inhibition at 10 µM: read-out: Inhibitory effect against HSV-1; for inhibition at 0.0001 µM / inhibition at 0.001 µM / inhibition at 0.01 µM / inhibition at 0.1 µM / inhibition at 1 µM: N 3, read-out: Inhibition percent relative to control, Herpes simplex virus (Median)"}, "[8]": {"conditions": "Hepatitis B virus, HepG2.2.15, 72 h"}}, "note": "Several values for one entry are separate records, joined by “and”; a condition that tells them apart may be missing. Equal entries are not always repeated. Where two headings read alike, the source gives them in different places.", "data": [{"compound": "CC(C)CCC[C@@H](C)[C@H]1CC[C@H]2[C@@H]3CC[C@H]4C[C@@H](O)CC[C@]4(C)[C@H]3CC[C@]12C", "note": "[5-α-cholestan-3-β-ol]", "values": [{"measurement": "CC50", "setting": "[1]", "value": "> 100", "unit": "µM"}, {"measurement": "CC50", "setting": "[2]", "value": "> 100", "unit": "µM"}]}, {"compound": "C[C@@H]1O[C@@H](Oc2c(-c3cc(O)c(O)c(O)c3)oc3cc(O)cc(O)c3c2=O)[C@H](O)[C@H](O)[C@H]1O", "note": "[MyrG, myricetin rhamnoside]", "values": [{"measurement": "EC50", "setting": "[3]", "value": 15, "unit": "nM"}, {"measurement": "CC50", "setting": "[1]", "value": "> 100", "unit": "µM"}, {"measurement": "CC50", "setting": "[2]", "value": "> 100", "unit": "µM"}]}, {"compound": "COc1ccc(-c2oc3c(OC)c(OC)c(OC)c(O)c3c(=O)c2OC)cc1O", "note": "[PMF, 5,3'-dihydroxy-3,6,7,8,4'-pentamethoxyflavone]", "values": [{"measurement": "EC50", "setting": "[3]; [8]", "value": 1, "unit": "nM"}, {"measurement": "CC50", "setting": "[4]", "value": "> 100", "unit": "µM"}, {"measurement": "CC50", "setting": "[5]", "value": "10 ± 0.1", "unit": "µM"}, {"measurement": "Plaque forming units, Polio virus", "setting": "[6]; 0.0001 µM", "value": "91 PFU and 92 PFU and 89 PFU"}, {"measurement": "Plaque forming units, Polio virus", "setting": "[6]; 0.001 µM", "value": "81 PFU and 80 PFU and 78 PFU"}, {"measurement": "Plaque forming units, Polio virus", "setting": "[6]; 0.01 µM", "value": "45 PFU and 41 PFU and 48 PFU"}, {"measurement": "Plaque forming units, Polio virus", "setting": "[6]; 0.1 µM", "value": "11 PFU and 16 PFU and 10 PFU"}, {"measurement": "EC50", "setting": "[6]", "value": "1000 ± 50", "unit": "nM"}, {"measurement": "inhibition at 0.0001 µM", "setting": "[6]; 0.0001 µM", "value": 0.1, "unit": "%"}, {"measurement": "inhibition at 0.001 µM", "setting": "[6]; 0.001 µM", "value": 11.5, "unit": "%"}, {"measurement": "inhibition at 0.01 µM", "setting": "[6]; 0.01 µM", "value": 50.4, "unit": "%"}, {"measurement": "inhibition at 0.1 µM", "setting": "[6]; 0.1 µM", "value": 86.3, "unit": "%"}, {"measurement": "inhibition at 1 µM", "setting": "[6]", "value": 97.8, "unit": "%"}, {"measurement": "Plaque forming units, Herpes simplex virus", "setting": "[7]; 0.0001 µM", "value": "98 PFU and 91 PFU and 90 PFU"}, {"measurement": "Plaque forming units, Herpes simplex virus", "setting": "[7]; 0.001 µM", "value": "82 PFU and 68 PFU and 76 PFU"}, {"measurement": "Plaque forming units, Herpes simplex virus", "setting": "[7]; 0.01 µM", "value": "68 PFU and 73 PFU and 61 PFU"}, {"measurement": "Plaque forming units, Herpes simplex virus", "setting": "[7]; 0.1 µM", "value": "48 PFU and 58 PFU and 55 PFU"}, {"measurement": "Plaque forming units, Herpes simplex virus", "setting": "[7]; 1 µM", "value": "34 PFU and 30 PFU and 37 PFU"}, {"measurement": "EC50", "setting": "[7]", "value": "6.8 ± 0.2", "unit": "µM"}, {"measurement": "inhibition at 10 µM", "setting": "[7]", "value": 90, "unit": "%"}, {"measurement": "inhibition at 0.0001 µM", "setting": "[7]; 0.0001 µM", "value": 3.14, "unit": "%"}, {"measurement": "inhibition at 0.001 µM", "setting": "[7]; 0.001 µM", "value": 21.5, "unit": "%"}, {"measurement": "inhibition at 0.01 µM", "setting": "[7]; 0.01 µM", "value": 29.9, "unit": "%"}, {"measurement": "inhibition at 0.1 µM", "setting": "[7]; 0.1 µM", "value": 44.1, "unit": "%"}, {"measurement": "inhibition at 1 µM", "setting": "[7]; 1 µM", "value": 64.9, "unit": "%"}]}, {"compound": "C[C@@H]1O[C@@H](OC[C@H]2O[C@H](Oc3c(-c4cc(O)c(O)c(O)c4)oc4cc(O)cc(O)c4c3=O)[C@H](O)[C@@H](O)[C@H]2O)[C@H](O)[C@H](O)[C@H]1O", "note": "[MyrGG, myricetin-3-α-O-ramnosil (1→6)-α-galactoside]", "values": [{"measurement": "EC50", "setting": "[3]", "value": 12000, "unit": "nM"}, {"measurement": "CC50", "setting": "[1]", "value": "> 100", "unit": "µM"}, {"measurement": "CC50", "setting": "[2]", "value": "> 100", "unit": "µM"}]}, {"compound": "24,25-dehydropollinastanol", "values": [{"measurement": "CC50", "setting": "[1]", "value": "> 100", "unit": "µM"}, {"measurement": "CC50", "setting": "[2]", "value": "> 100", "unit": "µM"}]}, {"compound": "CC(C)CCC[C@@H](C)[C@H]1CC[C@H]2C3=CC[C@H]4C[C@@H](O)CC[C@]4(C)[C@H]3CC[C@]12C", "note": "[5-α-cholestan-7-en3-β-ol]", "values": [{"measurement": "CC50", "setting": "[1]", "value": "> 100", "unit": "µM"}, {"measurement": "CC50", "setting": "[2]", "value": "> 100", "unit": "µM"}]}, {"compound": "COc1ccc(-c2oc3cc(OC)c(OC)c(O)c3c(=O)c2OC)cc1OC", "note": "[PMF-OH, 5-hydroxy-3,6,7,3',4'-pentamethoxyflavone]", "values": [{"measurement": "EC50", "setting": "[3]; [8]", "value": 98, "unit": "nM"}, {"measurement": "CC50", "setting": "[4]", "value": "> 100", "unit": "µM"}, {"measurement": "CC50", "setting": "[5]", "value": "10 ± 0.58", "unit": "µM"}, {"measurement": "Plaque forming units, Polio virus", "setting": "[6]; 0.0001 µM", "value": "92 PFU and 95 PFU and 90 PFU"}, {"measurement": "Plaque forming units, Polio virus", "setting": "[6]; 0.001 µM", "value": "76 PFU and 70 PFU and 73 PFU"}, {"measurement": "Plaque forming units, Polio virus", "setting": "[6]; 0.01 µM", "value": "42 PFU and 40 PFU and 48 PFU"}, {"measurement": "Plaque forming units, Polio virus", "setting": "[6]; 0.1 µM", "value": "23 PFU and 20 PFU and 26 PFU"}, {"measurement": "EC50", "setting": "[6]", "value": "1100 ± 30", "unit": "nM"}, {"measurement": "inhibition at 0.0001 µM", "setting": "[6]; 0.0001 µM", "value": 0.1, "unit": "%"}, {"measurement": "inhibition at 0.001 µM", "setting": "[6]; 0.001 µM", "value": 18.9, "unit": "%"}, {"measurement": "inhibition at 0.01 µM", "setting": "[6]; 0.01 µM", "value": 51.9, "unit": "%"}, {"measurement": "inhibition at 0.1 µM", "setting": "[6]; 0.1 µM", "value": 74.4, "unit": "%"}, {"measurement": "inhibition at 1 µM", "setting": "[6]", "value": 96.3, "unit": "%"}, {"measurement": "Plaque forming units, Herpes simplex virus", "setting": "[7]; 0.0001 µM", "value": "96 PFU and 98 PFU and 90 PFU"}, {"measurement": "Plaque forming units, Herpes simplex virus", "setting": "[7]; 0.001 µM", "value": "80 PFU and 82 PFU and 86 PFU"}, {"measurement": "Plaque forming units, Herpes simplex virus", "setting": "[7]; 0.01 µM", "value": "76 PFU and 73 PFU and 70 PFU"}, {"measurement": "Plaque forming units, Herpes simplex virus", "setting": "[7]; 0.1 µM", "value": "67 PFU and 55 PFU and 50 PFU"}, {"measurement": "Plaque forming units, Herpes simplex virus", "setting": "[7]; 1 µM", "value": "10 PFU and 5 PFU"}, {"measurement": "EC50", "setting": "[7]", "value": "5.9 ± 0.1", "unit": "µM"}, {"measurement": "inhibition at 10 µM", "setting": "[7]", "value": 60, "unit": "%"}, {"measurement": "inhibition at 0.0001 µM", "setting": "[7]; 0.0001 µM", "value": 1.4, "unit": "%"}, {"measurement": "inhibition at 0.001 µM", "setting": "[7]; 0.001 µM", "value": 13.9, "unit": "%"}, {"measurement": "inhibition at 0.01 µM", "setting": "[7]; 0.01 µM", "value": 24, "unit": "%"}, {"measurement": "inhibition at 0.1 µM", "setting": "[7]; 0.1 µM", "value": 40.3, "unit": "%"}, {"measurement": "inhibition at 1 µM", "setting": "[7]; 1 µM", "value": 91.3, "unit": "%"}]}, {"compound": "C=C(C)C1CCC2(C)CCC3(C)C(=CCC4C5(C)CCC(O)C(C)(C)C5CCC43C)C12", "note": "(stereo not drawn) [Upa-12,20(29)-dien-3-ol, lupa-12,20(29)-dien-3-ol]", "values": [{"measurement": "CC50", "setting": "[1]", "value": "> 100", "unit": "µM"}, {"measurement": "CC50", "setting": "[2]", "value": "> 100", "unit": "µM"}]}, {"compound": "marcetol", "values": [{"measurement": "CC50", "setting": "[1]", "value": "> 100", "unit": "µM"}, {"measurement": "CC50", "setting": "[2]", "value": "> 100", "unit": "µM"}]}]}
